According to US20050009739A1, “Formulation strategies in stabilizing peptides in organic solvents and in dried states” (priority 2002, published 2005):
Ends that are not written are not given here.

How the values were obtained:
[1] = Solubility of peptide in organic solvents; assay type: physicochemical; conditions: some organic solvents
[2] = Stability of PACAP 66 in DMSO at 40° C. in the presence of different metal salts (RP-HPLC recovery, CE purity); assay type: physicochemical; conditions: 2 mg/mL; for PACAP 66 degraded: 4 weeks, RP-HPLC
Method: Different metal salts, including ZnCl2, MgCl2, and CaCl2 were separately dissolved at 1 mM in DMSO, a non-aqueous organic solvent. PACAP 66 was then dissolved in these solutions at 2 mg/mL. The bulk solution was aliquoted into 2-mL screw-capped (with an o-ring) sterile polypropylene vials. These stability samples were incubated at 40° C. and analyzed at predetermined intervals.
More than 70% of PACAP 66 was degraded in DMSO in 4 weeks at 40° C. by RP-HPLC, but only approximately 10% of PACAP 66 was degraded in the presence of 1 mM ZnCl2 under the same storage conditions. […] The CE results were similar to the findings from the RP-HPLC analysis.

[3] = Stability of peptide in an aqueous solution; assay type: physicochemical
[4] = Stability of PACAP 66 suspension at 20 mg/mL in 2-propanol at 40° C.; assay type: physicochemical; conditions: suspension 20 mg/mL in 2-propanol
From the text: (§1) To test whether a metal salt would stabilize PACAP 66 at a high peptide concentration in an organic solvent, a high concentration of a metal salt would be required, assuming a fixed ratio of metal and peptide is needed for stabilization. A metal salt, however, has limited solubility in an organic solvent Therefore, a similar preparation method was adopted for sample preparation of peptide-metal mixtures at high concentrations, as described under Acidification and Lyophilization of PACAP 66, supra. Briefly, a metal salt and the peptide were first dissolved at a fixed molar ratio in an aqueous solution. The solution was then aliquoted in 3-mL glass vials at a fixed volume and lyophilized. Stability samples were prepared by adding a fixed amount of an organic solvent in the vial. The sample vials were then capped, sealed, and incubated at 40° C. Stability samples were first diluted to a reasonable concentration before analysis by RP-HPLC or CE. Similarly, a peptide suspension was prepared by mixing a proper amount of an organic solvent in a sample vial containing the lyophilized mixture and incubated at 40° C. Stability of solid PACAP 66 was evaluated directly by incubating the sample vial containing the lyophilized mixture at 40° C.

[5] = Stability of PACAP 66 solution at 20 mg/mL in 1-methyl-2-pyrrolinidone at 40° C.; assay type: physicochemical; conditions: acidified samples
From the text: as §1
PACAP 66 in the sample was acidified in the absence and presence of ZnCl2.

[6] = Stability of acidified, lyophilized PACAP 66 in DMSO at 40° C.; assay type: physicochemical; conditions: for PACAP 66 degraded: 2 weeks
Method: Several acid solutions were prepared at 0.1%, including HCl, trifluoro acetic acid (TFA), and H3PO4 and cooled to 2-8° C. The cold acid solutions were then mixed with PACAP 66 at a PACAP 66:acid molar ratio of 1:10. After mixing, the cold PACAP 66 solutions were immediately placed inside a precooled freeze-drier and were lyophilized. The lyophilized material was further equilibrated in a desiccator containing P2O5 for at least one day to absorb additional moisture from the lyophilized peptide. The acidified and dried material was then dissolved in DMSO at 2 mg/mL and stability was conducted as described in the upper section.
The recovery of HCl-acidified PACAP 66 at the end of a 2-week period was 97% by RP-HPLC. However, the recovery could be slightly overestimated, as the corresponding purity of PACAP 66 in the sample was only 89% by RP-HPLC.
We understand that peptides can be hydrolyzed readily under acidic conditions in an aqueous solution. […] In the acidification of PACAP 66, the pH of acidified PACAP 66 solution was measured to be 2.2 after addition of TFA. At this pH, PACAP 66 should be rapidly hydrolyzed.

[7] = Stability of PACAP 66 solution at 300 mg/mL in DMSO at 40° C.; assay type: physicochemical; conditions: 23 weeks
From the text: as §1
PACAP 66 in the sample was acidified in the absence and presence of ZnCl2. Approximately 70% of the peptide was degraded in the control sample after storage for 23 weeks, while approximately 20% was degraded in the acidified samples in the presence or absence of ZnCl2.

[8] = Stability of PACAP 66 in a lyophilized state at 40° C.; assay type: physicochemical
From the text: as §1

[9] = pH 4; cited from earlier work

## HSDAVFTDNYTRLRKQVAAKKYLQSIKNKRY [PACAP 66]
[1]
  solubility in organic solvents: dissolved easily
[2]; 1 mM CaCl2
  stabilizing effect compared with the control: did not have any significant stabilizing effect
[2]; 1 mM MgCl2
  stabilizing effect compared with the control: did not have any significant stabilizing effect
[2]; 1 mM ZnCl2
  PACAP 66 degraded: approximately 10%
[2]; control without metal salt
  PACAP 66 degraded: More than 70%
[3]; aqueous solution, 40° C., zinc, magnesium or calcium
  effect of different metals on stability: does not improve its stability
[3]; aqueous solution, zinc oxide at 10 mM (FIG. 1)
  effect of zinc oxide on stability: did not stabilize
[3]; aqueous, 40° C. (FIG. 1)
  stability in an aqueous environment: not stable
[4]
  effect of addition of ZnCl2 on storage stability: significantly improved the storage stability
[5]
  effect of addition of ZnCl2 on stability: seems to stabilize PACAP 66 to a higher degree
[6]; acidified (HCl, TFA or H3PO4) and lyophilized PACAP 66, DMSO 2 mg/mL
  PACAP 66 degraded: less than 10%
[6]; acidified and lyophilized PACAP 66 in DMSO
  relative stabilization effect by acids: HCl >TFA >H3PO4
[6]; unprocessed PACAP 66 (control), DMSO 2 mg/mL
  PACAP 66 degraded: More than 50%
[7]; acidified (HCl), absence of ZnCl2
  peptide degraded: approximately 20%
[7]; acidified (HCl), presence of ZnCl2
  peptide degraded: approximately 20%
[7]; control sample
  peptide degraded: Approximately 70%
[8]
  effect of acidification on stability during storage: significantly stabilized the peptide
[8]; acidified
  effect of addition of ZnCl2 on stability: seems to stabilize the peptide to a higher degree

## Secretin: a PACAP-like peptide
[9]
  stability in an aqueous solution: can be degraded easily
